Assay results taken from US10695288B2, “Reactive oxygen species (ROS)-responsive compositions and methods thereof” (VANDERBILT UNIVERSITY, priority 2014, dated 2020).
One block for each molecule: values may come before it.

How the values were obtained:
MMP-13 = MMP-13 expression from PCR with TNF-α; assay type: cell-based, porcine; details: TNF-α alone
Description: (§1) TPCA-PPS microspheres were made as shown above. Chondrocytes were obtained from porcine cadavers prepared by the University of Tennessee Heath Science Center. MMPSense750 and XenoFluor 680 was obtained from PerkinElmer. Monoclonal antibodies to type II collagen were produced in our lab. C57BL/6 male mice were obtained from Jackson Laboratory (Maine, USA) and was acclimated in a housing facility before experimentation. A custom fit ElectroForce® 3200 (Bose Corp., Minnesota, USA) biomaterials test instrument was used for mechanical loading. The mechanical loading apparatus was custom made to fit the proximal tibia in the upper cup and dorsiflexed ankle in the bottom cup.

[1] = test system: mouse hind limb ischemia model; experiment: Speckle variance OCT of vascular morphology in adductor and gastrocnemius regions (Example 2); assay type: in vivo, FVB mice; details: gastrocnemius muscle, day 3, vs saline
Description: Briefly, the femoral artery and vein of the right hind limb were ligated with 6-0 sutures proximal to the origins of the superficial epigastric artery and deep branch of the femoral artery, and proximal to the vessels the branch from the femoral artery near the knee. Major side branches were also ligated with 6-0 sutures before the ligated segment of the femoral artery and vein was excised. The incision was closed with interrupted 5-0 nylon sutures. In therapeutic experiments, treatments were injected intramuscularly in the ischemic limb following closure of the skin incision. […]
At 0, 3, 7, 14, 21, and 28 days post-surgery, the hind limb vasculature in the adductor and gastrocnemius muscle regions was imaged using a swept-source optical coherence tomography (OCT) system as described previously (26, 39). […] Speckle variance OCT volumes were acquired non-invasively through the skin in 4 mm×4 mm areas covering the two muscle regions, and average intensity projections in depth were used to visualize all vessels detected within the imaged volume. After image processing was performed to enhance contrast and enable vessel segmentation (39, 40), morphological parameters including vessel area density (total area filled by vessels/total area of imaged region) and vessel length fraction (total vessel length/total area of imaged region) were quantified.

[2] = Hydrogen peroxide scavenging in vitro (Amplex Red, xanthine/xanthine oxidase); assay type: biochemical; details: 1 hour of incubation, one-way ANOVA p<0.001
Method: H2O2-scavenging activity of the PPS microspheres was verified in vitro using an Amplex Red Hydrogen Peroxide/Peroxidase Assay kit according to the manufacturer's instructions. Xanthine and xanthine oxidase were used at the same concentrations as described in the DHE assay to generate a reaction solution containing both superoxide and hydrogen peroxide. The reaction solution was added to wells in a black-walled, 96-well plate containing either PBS, blank PPS microspheres (final concentrations of 60 μg/mL and 7 μg/mL), or free tempo-benzoate (final concentrations of 0.5 mg/mL and 60 μg/mL). The Amplex Red working solution was freshly prepared as described in the kit instructions using the included Amplex Red, horseradish peroxidase, and 1× reaction buffer. The working solution was then added to the wells and fluorescence was measured in a plate reader at 1 hour with an excitation of 530 nm and an emission of 590 nm.

[3] = Superoxide scavenging in vitro (DHE fluorescence, xanthine/xanthine oxidase); assay type: biochemical; details: 55 μg/mL, one-way ANOVA p<0.0001
Method: In vitro superoxide scavenging activity of the tempo-PPS microspheres was evaluated using a dihydroethidium (DHE) fluorescence assay. DHE has been widely used to detect superoxide, which reacts with DHE to form a specific fluorescent product, 2-OH-ethidium (2OH-E). The effects of PPS and tempo-benzoate on superoxide were determined using a superoxide-generating, cell-free enzymatic system containing 0.046 U/ml xanthine oxidase and 0.2 mM xanthine. Xanthine was prepared in PBS−/− as a stock solution (1.21 mg/mL), and the appropriate volume of xanthine stock solution was added to the xanthine oxidase solution to reach the required final concentration. The xanthine/xanthine oxidase solution (100 μL) was added to wells in a black-walled, 96-well plate containing the following treatments: PBS, blank PPS microspheres (55 μg/mL), free tempo-benzoate (dissolved in acetonitrile then diluted to 5% acetonitrile, 55 μg/mL tempo-benzoate), and tempo-PPS microspheres (55 μg/mL microsphere concentration). Each well contained 10 μL of a treatment. […] After 10 minutes, 100 μL of the DHE solution was added to each well (10 uM final DHE concentration) and the fluorescence intensity was measured in a plate reader (Tecan Group Ltd., Mannedorf, Switzerland) over a time frame of 1 hour with an excitation of 405 nm and an emission of 570 nm. […]

[4] = Peroxynitrite scavenging in vitro (Pyrogallol Red bleaching assay); assay type: biochemical; details: 10 μM peroxynitrite; negative control
Method: The ability of PPS microspheres to scavenge peroxynitrite was tested in vitro using a Pyrogallol Red (PGR) bleaching assay. Treatment groups consisting of PBS, blank PPS microspheres (0.5-1.5 mg/mL), tempo-PPS microspheres (0.5 mg/mL), tempol (0.2 mg/mL, hydrophilic analog of tempo-benzoate), and ascorbic acid (negative control, pH adjusted to 7.4) were prepared in a 48-well plate with 500 μL volume per well. A PGR stock solution was prepared in PBS ([…]) and 10 μL was added to each well. Peroxynitrite stock solution was thawed on ice and diluted to a concentration of 1 mM in 0.3 M NaOH. After baseline absorbance of the dye was measured in a plate reader at 540 nm, 5 μL of peroxynitrite was added to each well (final concentration of 10 μM) and absorbance measurements were collected for one hour.

MMP-13 activity = experiment: IVIS imaging of MMPSense fluorescence after knee mechanical overload; assay type: in vivo, C57BL/6 mice; details: knee injection, loading cycles; vs PBS; p=0.0184 for microspheres
Method: (§2) For the study, C57BL/6 mice knees were injected with TPCA-1-PPS microspheres, TPCA-1 in its soluble form, or a PBS saline control. The mice were then given loading cycles to induce damage to the knee via the Poulet model of knee overload. At the completion of the loading cycles, the mice were given fluorescent indicators and evaluated using IVIS (in vivo imaging system) for type II collagen (and indicator of cartilage damage), and MMP activity (implicated in the progression of OA). […] This difference was not seen in the mice given the soluble form of TPCA-1 however.
as §1

type II collagen = experiment: IVIS imaging of MabCII fluorescence after knee mechanical overload; assay type: in vivo, C57BL/6 mice; details: knee injection, loading cycles; vs PBS; p=0.0181 for microspheres
Method: as §2, §1

[5] = test system: ROS levels in ischemic tissue; experiment: Pilot studies with free curcumin in ischemic tissue; assay type: in vivo
[6] = Pilot studies with free curcumin in vitro; assay type: physicochemical

Molecule: TNF-α
increase in MMP-13 expression (MMP-13): ~20 fold

Molecule: CC1(C)CC(OC(=O)c2ccccc2)CC(C)(C)N1[O] [free tempo-benzoate, 4-hydroxy-TEMPO benzoate]
vessel area density ([1]; p<0.01): saline-treated mice have significantly lower vessel area density
vessel length fraction ([1]; p<0.05): significantly lower in the saline group
Amplex Red fluorescence [2]: significantly increases the fluorescent signal
fluorescent signal from the DHE oxidation product compared to no treatment [3]: significantly reduce fluorescence

Molecule: SOD: bovine SOD (20 U/ml) used as a negative control treatment
fluorescent signal from the DHE oxidation product compared to no treatment [3]: further inhibited

Molecule: O=C1O[C@H]([C@@H](O)CO)C(O)=C1O [Ascorbic acid, ascorbic acid]
relative bleaching [4]: 2%

Molecule: NC(=O)Nc1sc(-c2ccc(F)cc2)cc1C(N)=O [TPCA-1 in solution, TPCA-1]
MMPSense fluorescence (MMP-13 activity) (MMP-13 activity): not a significant reduction in fluorescence
MabCII fluorescence (exposed type II collagen) (type II collagen): not a significant reduction in fluorescence

behaviour of free curcumin in vitro [6]: formed crystals in vitro
Molecule: COc1cc(/C=C/C(=O)CC(=O)/C=C/c2ccc(O)c(OC)c2)ccc1O [free curcumin, Curcumin]
ROS levels in ischemic tissue [5]: exacerbated ROS levels in ischemic tissue
